Data published in patent publication US20080248511A1, “METHODS TO QUENCH LIGHT FROM OPTICAL REACTIONS” (priority 2007, published 2008).
Read-outs that look alike come from different tables or passages of the source.

How the values were obtained:
Renilla luciferase [1] = molecular target: T1, Renilla luciferase (Renilla reniformis, UniProt P27652); assay: Detergent screen with Tergitol NP-9, Renilla luciferase (Example 3); format: biochemical; conditions: 0.5% Tergitol NP-9; for Retained Renilla Luminescence (%): 0.06% quencher in reagent solution; for Selectivity Value: retained firefly / retained Renilla, 0.06% quencher
T1 sequence (P27652 1-311): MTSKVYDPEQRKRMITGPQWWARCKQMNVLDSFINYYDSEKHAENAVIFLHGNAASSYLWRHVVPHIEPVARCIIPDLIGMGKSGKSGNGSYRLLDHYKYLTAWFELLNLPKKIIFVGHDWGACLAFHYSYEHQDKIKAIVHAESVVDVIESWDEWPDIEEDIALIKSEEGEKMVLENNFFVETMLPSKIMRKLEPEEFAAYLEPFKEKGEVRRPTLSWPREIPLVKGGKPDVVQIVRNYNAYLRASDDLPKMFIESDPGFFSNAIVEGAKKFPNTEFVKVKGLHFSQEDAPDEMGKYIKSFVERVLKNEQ
Description: (§1) Unless otherwise specified, materials were obtained from Sigma-Aldrich.
(§2) The firefly luciferase and Renilla luciferase enzymes were diluted as follows. Firefly luciferase was diluted to 14 ng/ml in Delbecco's Minimal Essential (DMEM) medium (Gibco/Invitrogen) containing 0.1% Prionex®. Renilla luciferase was diluted to 10 ng/ml in DMEM medium containing 0.1% Prionex®.
(§3) The luciferase reactions were initiated by adding 50 μl of the firefly luciferase or Renilla luciferase enzyme solution to 50 μl of reagent solution. The reactions were performed as described above. The retained firefly luciferase and Renilla luciferase luminescence as well as the selectivity values for each quencher were calculated (Table 3). The values listed are based on 0.06% quencher in the reagent solution.

firefly luciferase [2] = molecular target: T2, firefly luciferase (Photinus pyralis, UniProt P08659); assay: Detergent screen with Tergitol NP-9, firefly luciferase (Example 3); format: biochemical; conditions: 0.06% quencher in reagent solution; 0.5% Tergitol NP-9
Description: as §1, §2, §3

Renilla luciferase [3] = molecular target: T1, Renilla luciferase; assay: biochemical; format: biochemical
Description: (§4) The retained luminescence for each luciferase was calculated by dividing the luminescence in the presence of the detergent by the luminescence in the absence of the test detergent. The selectivity value for each of the test detergents was determined by dividing the retained firefly luciferase luminescence by the retained Renilla luciferase luminescence.
(§5) A set of detergents (Table 2; Sigma-Aldrich) was added at 0.5% (from a 5% or 10% stock solution) to either Luciferase Assay Reagent (Promega) or Renilla Luciferase Assay Reagent (Promega) and allowed to equilibrate at room temperature.
(§6) The firefly luciferase and Renilla luciferase enzymes were diluted as follows. Firefly luciferase was diluted to 14 ng/ml in Phosphate Buffered Saline (PBS) containing 0.1% of the protein carrier Prionex® (Pentapharm). Renilla luciferase was diluted to 10 ng/ml in 1× Renilla Luciferase Lysis Buffer (Promega) containing 0.1% Prionex®. The Renilla Luciferase Lysis Buffer […] detergent micelles when using the Renilla Luciferase Assay Reagent. In the absence of other detergents, this prevents sequestering of coelenterazine which inhibits Renilla luciferase-mediated luminescence.
(§7) The luciferase reactions were initiated by adding 40 μl of either the firefly or Renilla luciferase enzyme solution to 200 μl of the appropriate reagent solution (firefly luciferase enzyme solution+firefly luciferase reagent solution or Renilla luciferase enzyme solution+Renilla luciferase reagent solution, respectively). The reactions were performed in an opaque white, 96-well plate and luminescence was measured for 0.5 seconds per well using a Turner BioSystems Veritas™ Microplate luminometer. The retained firefly luciferase and Renilla luciferase luminescence, as well as the selectivity values for each detergent, were calculated (Table 2).

firefly luciferase [4] = molecular target: T2, firefly luciferase; assay: biochemical; conditions: 0.5% detergent in Luciferase Assay Reagent; read-out: Retained Firefly Luciferase Luminescence (%)
Description: as §4, §5, §6, §7

firefly luciferase [5] = molecular target: T2, firefly luciferase; assay: Detergent titration with Tergitol NP-9, digitonin or no lysing agent, firefly luciferase (Example 4); format: biochemical; conditions: read-out: Relative Firefly Luc Intensity; for remaining activity at 0.0005 %: 0.0005% detergent; for remaining activity at 0.005 %: 0.0050% detergent; for remaining activity at 0.05 %: 0.0500% detergent
Description: For measurement of firefly luciferase-mediated luminescence, a solution containing 110 mM HEPES pH 7.5, 8 mM MgSO4, 0.05% gelatin, 7.35 ng/ml firefly luciferase (QuantiLum® Luciferase; Promega) and the content of the Steady-Glo Luciferase Substrate (Promega) at the equivalent of 1×, As in the Renilla luciferase reactions, reactions contained either no lysing agent, 0.5% Tergitol NP-9 or 20 μg/ml digitonin. The same detergents were titrated as described above and firefly luciferase-mediated luminescence was measured.

Renilla luciferase [6] = molecular target: T1, Renilla luciferase; assay: Detergent titration with Tergitol NP-9, digitonin or no lysing agent, Renilla luciferase (Example 4); format: biochemical; conditions: for remaining activity at 0.0005 % / remaining activity at 0.005 % / remaining activity at 0.05 %: read-out: Relative Renilla Luc Intensity
Description: Renilla luciferase-mediated luminescence was measured from samples containing 9.6 mM phosphate buffer pH 6.8, 2.7 mM KCl, 137 mM NaCl (in PBS), 0.1% gelatin, 75 nM coelentrazine (Promega) and 10.2 ng/ml Renilla luciferase. Reactions contained either no lysing agent, 0.5% Tergitol NP-9 or 20 μg/ml digitonin. The detergents to be tested were titrated to 0.05%, 0.005% or 0.0005% in the reactions prior to the addition of the Renilla luciferase. Renilla luciferase-mediated luminescence was measured as described herein.

T2 sequence (P08659 whole entry): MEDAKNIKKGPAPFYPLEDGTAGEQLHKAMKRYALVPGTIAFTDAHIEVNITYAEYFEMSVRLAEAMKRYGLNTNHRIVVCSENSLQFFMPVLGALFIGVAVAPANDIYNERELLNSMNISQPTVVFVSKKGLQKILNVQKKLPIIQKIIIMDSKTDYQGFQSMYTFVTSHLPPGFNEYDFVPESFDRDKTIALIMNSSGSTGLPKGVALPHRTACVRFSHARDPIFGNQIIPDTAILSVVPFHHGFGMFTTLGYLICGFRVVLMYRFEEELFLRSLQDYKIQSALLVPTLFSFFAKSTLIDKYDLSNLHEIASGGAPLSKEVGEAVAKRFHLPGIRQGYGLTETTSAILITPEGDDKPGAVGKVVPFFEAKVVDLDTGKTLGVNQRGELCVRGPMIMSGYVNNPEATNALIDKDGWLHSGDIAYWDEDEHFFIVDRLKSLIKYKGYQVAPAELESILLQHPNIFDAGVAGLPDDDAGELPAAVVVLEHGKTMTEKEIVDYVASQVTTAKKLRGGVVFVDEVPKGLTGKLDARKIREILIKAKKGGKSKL

`C[N+](C)(Cc1ccccc1)C1CCCCC1.[Br-]` [N-benzyl-N,N-dimethylcyclohexanaminium bromide] was tested, and the “Retained Renilla Luminescence (%)” value (Renilla luciferase [1]) was 76%, the “Selectivity Value” (Renilla luciferase [1]) was 1.2 and the “Retained Firefly Luminescence (%)” value (firefly luciferase [2]) was 90%.
For `CCCCCC[N+](C)(C)Cc1ccccc1.[Br-]` [N-benzyl-N,N-dimethylhexan-1-aminium bromide], the “Retained Renilla Luminescence (%)” value (Renilla luciferase [1]) was 54%, the “Selectivity Value” (Renilla luciferase [1]) was 1.9 and the “Retained Firefly Luminescence (%)” value (firefly luciferase [2]) was 103%.
With `CCCCC[N+](CCCCC)(CCCCC)CCCCC.[Br-]` [Tetrapentylammonium bromide] the remaining activity at 0.5 % (Renilla luciferase [3]; 0.5% detergent in Renilla Luciferase Assay Reagent, read-out: Retained Renilla Luciferase Luminescence (%)) was 37%, the “Selectivity Value” (Renilla luciferase [3]; retained firefly / retained Renilla, 0.5% detergent) was 2.2 and the remaining activity at 0.5 % (firefly luciferase [4]) was 80.9%. It also gave a remaining activity at 0.0005 % (firefly luciferase [5]; Dig) of 100%, a remaining activity at 0.0005 % (firefly luciferase [5]; Terg) of 97% and a remaining activity at 0.0005 % (firefly luciferase [5]; Water) of 98%. The remaining activity at 0.005 % (firefly luciferase [5]; Dig) was 104%, the remaining activity at 0.005 % (firefly luciferase [5]; Terg) was 96% and the remaining activity at 0.005 % (firefly luciferase [5]; Water) was 101%. The remaining activity at 0.05 % (firefly luciferase [5]; Dig (20 μg/ml digitonin)) was 117%, the remaining activity at 0.05 % (firefly luciferase [5]; Terg (0.5% Tergitol NP-9)) was 95% and the remaining activity at 0.05 % (firefly luciferase [5]; Water (no lysing agent)) was 110%. The “Selective Inhibition (Ff Luc Inh/Ren Luc Inh)” value (Renilla luciferase [6]; 0.0005% detergent, Dig) was 1.0, the remaining activity at 0.0005 % (Renilla luciferase [6]; 0.0005% detergent, Dig) was 99% and the “Selective Inhibition (Ff Luc Inh/Ren Luc Inh)” value (Renilla luciferase [6]; 0.0005% detergent, Terg) was 1.0. The remaining activity at 0.0005 % (Renilla luciferase [6]; 0.0005% detergent, Terg) was 96%, the “Selective Inhibition (Ff Luc Inh/Ren Luc Inh)” value (Renilla luciferase [6]; 0.0005% detergent, Water) was 1.0 and the remaining activity at 0.0005 % (Renilla luciferase [6]; 0.0005% detergent, Water) was 98%. For the same molecule, the “Selective Inhibition (Ff Luc Inh/Ren Luc Inh)” value (Renilla luciferase [6]; 0.0050% detergent, Dig) was 1.2, the remaining activity at 0.005 % (Renilla luciferase [6]; 0.0050% detergent, Dig) was 87% and the “Selective Inhibition (Ff Luc Inh/Ren Luc Inh)” value (Renilla luciferase [6]; 0.0050% detergent, Terg) was 1.2. For the same molecule, the remaining activity at 0.005 % (Renilla luciferase [6]; 0.0050% detergent, Terg) was 81%, the “Selective Inhibition (Ff Luc Inh/Ren Luc Inh)” value (Renilla luciferase [6]; 0.0050% detergent, Water) was 1.2 and the remaining activity at 0.005 % (Renilla luciferase [6]; 0.0050% detergent, Water) was 83%. For the same molecule, the remaining activity at 0.05 % (Renilla luciferase [6]; 0.0500% (w:v) detergent, Terg (0.5% Tergitol NP-9)) was 38%, the “Selective Inhibition (Ff Luc Inh/Ren Luc Inh)” value (Renilla luciferase [6]; 0.0500% detergent, Dig) was 2.9 and the remaining activity at 0.05 % (Renilla luciferase [6]; 0.0500% detergent, Dig (20 μg/ml digitonin)) was 40%. For the same molecule, the “Selective Inhibition (Ff Luc Inh/Ren Luc Inh)” value (Renilla luciferase [6]; 0.0500% detergent, Terg) was 2.5, the “Selective Inhibition (Ff Luc Inh/Ren Luc Inh)” value (Renilla luciferase [6]; 0.0500% detergent, Water) was 3.0 and the remaining activity at 0.05 % (Renilla luciferase [6]; 0.0500% detergent, Water (no lysing agent)) was 37%.
